Reference: BindingDB's records for doi:10.1021/acs.biochem.5b00135 (Northwestern University, 2015)

Each molecule was assayed against T1, Nitric oxide synthase, inducible (Mus musculus, UniProt P29477) (assay: Hemoglobin Assay). Details: pH 7.4.
T1 sequence (P29477 whole entry): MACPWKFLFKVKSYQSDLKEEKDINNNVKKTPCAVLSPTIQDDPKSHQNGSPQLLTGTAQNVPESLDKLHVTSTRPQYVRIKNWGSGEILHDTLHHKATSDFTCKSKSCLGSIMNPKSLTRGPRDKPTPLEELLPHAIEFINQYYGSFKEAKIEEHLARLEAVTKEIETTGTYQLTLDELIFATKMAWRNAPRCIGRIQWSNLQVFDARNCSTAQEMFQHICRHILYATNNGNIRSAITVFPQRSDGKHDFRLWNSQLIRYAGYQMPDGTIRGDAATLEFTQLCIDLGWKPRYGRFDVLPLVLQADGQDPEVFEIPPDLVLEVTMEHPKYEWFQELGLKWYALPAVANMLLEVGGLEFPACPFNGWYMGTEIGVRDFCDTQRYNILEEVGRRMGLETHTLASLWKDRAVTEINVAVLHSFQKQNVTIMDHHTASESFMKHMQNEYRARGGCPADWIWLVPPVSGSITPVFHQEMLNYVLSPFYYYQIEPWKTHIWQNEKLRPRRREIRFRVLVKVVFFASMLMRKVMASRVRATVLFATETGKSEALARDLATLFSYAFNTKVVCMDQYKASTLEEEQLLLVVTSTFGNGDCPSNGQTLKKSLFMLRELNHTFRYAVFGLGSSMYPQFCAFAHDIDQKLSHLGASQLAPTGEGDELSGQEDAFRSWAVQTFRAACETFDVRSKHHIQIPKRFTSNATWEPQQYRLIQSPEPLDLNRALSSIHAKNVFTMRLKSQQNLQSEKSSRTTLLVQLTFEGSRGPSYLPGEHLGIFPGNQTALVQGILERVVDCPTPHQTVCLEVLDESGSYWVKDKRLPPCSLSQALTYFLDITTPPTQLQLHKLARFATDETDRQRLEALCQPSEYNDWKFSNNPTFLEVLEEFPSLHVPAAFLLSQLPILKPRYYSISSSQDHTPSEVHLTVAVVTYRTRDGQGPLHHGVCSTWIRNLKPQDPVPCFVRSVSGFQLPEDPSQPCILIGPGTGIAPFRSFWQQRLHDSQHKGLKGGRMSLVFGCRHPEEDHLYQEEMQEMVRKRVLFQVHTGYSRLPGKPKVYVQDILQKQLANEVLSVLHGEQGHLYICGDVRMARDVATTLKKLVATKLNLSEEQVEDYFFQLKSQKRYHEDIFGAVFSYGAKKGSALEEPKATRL
Procedure: The final volume was adjusted to 600 μL with 100 mM Hepes buffer (pH 7.4).

SMILES	IC50	Ki
N=CNCCC[C@H](N)C(=O)O [(S)-2-Amino-5-formimidamidopentanoic acid (7)]	0.4 µM	0.18 µM
CC(C)C(=N)NCCC[C@H](N)C(=O)O [(S)-2-Amino-5-isobutyrimidamidopentanoic acid (10)]	138 µM	65.2 µM
CC(C)(C)C(=N)NCCC[C@H](N)C(=O)O [(S)-2-Amino-5-pivalimidamidopentanoic acid (12)]	323 µM	146 µM
CC(=N)NCCC[C@H](N)C(=O)O [(S)-5-Acetimidamido-2-aminopentanoic acid (4, L-NIO)]	8.1 µM	

Further lines, results first:

IC50	Ki	SMILES
19.1 µM	8.61 µM	CCCC(=N)NCCC[C@H](N)C(=O)O [(S)-2-Amino-5-butyrimidamidopentanoic acid (9)]
16.1 µM	7.25 µM	CCC(=N)NCCC[C@H](N)C(=O)O [(S)-2-Amino-5-propionimidamidopentanoic acid (8)]
